Data set [1] can be described thus: Dog LM (liver microsome) assay. It counts as in vitro ADME. Particulars: predicted clearance as percent of liver blood flow. As for the experimental part:
Dog LM (Liver Microsome) Assay
The metabolic degradation of the test compound is assayed at 37° C. with pooled liver microsomes from dogs (Beagle). The final incubation volume of 100 μl per time point contains TRIS buffer pH 7.6 at RT (0.1 M), magnesium chloride (5 mM), microsomal protein (1 mg/ml) and the test compound at a final concentration of 1 μM. Following a short preincubation period at 37° C., the reactions were initiated by addition of beta-nicotinamide adenine dinucleotide phosphate, reduced form (NADPH, 1 mM) and terminated by transferring an aliquot into solvent after different time points. Additionally, the NADPH-independent degradation was monitored in incubations without NADPH, terminated at the last time point. The [%] remaining test compound after NADPH independent incubation is reflected by the parameter c (control) (metabolic stability). The quenched incubations are pelleted by centrifugation (10000 g, 5 min). An aliquot of the supernatant is assayed by LC-MS/MS for the amount of parent compound. The half-life (t½ INVITRO) is determined by the slope of the semilogarithmic plot of the concentration-time profile. The intrinsic clearance (CL_[…]) is calculated by considering the amount of protein in the incubation: CL_[…] [μl/min/mg protein]=(Ln 2/(half-life [min]*protein content [mg/ml]))*1000. For better across species comparison the predicted clearance is expressed as percent of the liver blood flow [% QH] in the individual species. In general, high stability (corresponding to low % QH) of the compounds across species is desired.

Data set [2] concerns GM-CSF/pSTAT5. In words: Cytokine function assay GM-CSF/pSTAT5 in lysed whole blood cells. As to conditions: Table 3b, comparator compounds; read-out: IC50 GM-CSF. It counts as cell-based. The procedure:
(§1) Cytokine Function Assay Protocols for IL-4/pSTAT6 and GM-CSF/pSTAT5
GM-CSF/pSTAT5: • Whole blood from a healthy donor was lysed to remove red blood cells. Cells were plated onto a 96 well plate. Compound was added and incubated for 1 hour (at 37° C.). After 1 hour, cells were stimulated with GM-CSF for 15 minutes. Cells were fixed and stained with anti-pSTAT5 antibody. After staining, cells were read on a Beckman-Coulter CytoFLEX.

Data set [3] deals with PDE4B (Homo sapiens (Human), UniProt Q07343). Put plainly: PDE4B inhibition. The data set is classed as biochemical.
Data set [4] deals with JAK2 (Homo sapiens (Human), UniProt O60674). In words: Biochemical kinase assay (33P-ATP filter-binding), JAK2. As to conditions: read-out: IC50 JAK2. The text has this:
(§2) Biochemical Kinase Assay Protocol (JAK)
(§3) Reaction Procedure: • 1. […] Detected kinase activity by filter-binding method.

The subject of data set [5] is IL-4/pSTAT6. In words: Cytokine function assay IL-4/pSTAT6 in PBMC. It counts as cell-based. As for the experimental part:
as §1
IL-4/pSTAT6: • PBMC from a healthy donor was plated onto a 96 w plate. Compound was added and incubated for 1 hour (at 37° C.). After 1 hour, cells were stimulated with IL-4 for 15 minutes. Cells were fixed and stained with anti-pSTAT6 antibody. After staining, cells were read on a Beckman-Coulter CytoFLEX.

In data set [6] the target is JAK1 (Homo sapiens (Human), UniProt P23458). Put plainly: Biochemical kinase assay (33P-ATP filter-binding), JAK1. Particulars: read-out: IC50 JAK1.
Source text: as §2, §3

[7] abbreviates: Table 3b, comparator compounds, read-out: IC50 IL-4.
Where [8] appears, read: Table 3a, 1 μM, 1 mg/ml microsomal protein.
Setting [9] is: PBMC, read-out: IC50 IL-4, Table 3a.

Like-named read-outs stand apart in the source and are kept apart here.

JAK2, sequence (O60674 whole entry, species assumed): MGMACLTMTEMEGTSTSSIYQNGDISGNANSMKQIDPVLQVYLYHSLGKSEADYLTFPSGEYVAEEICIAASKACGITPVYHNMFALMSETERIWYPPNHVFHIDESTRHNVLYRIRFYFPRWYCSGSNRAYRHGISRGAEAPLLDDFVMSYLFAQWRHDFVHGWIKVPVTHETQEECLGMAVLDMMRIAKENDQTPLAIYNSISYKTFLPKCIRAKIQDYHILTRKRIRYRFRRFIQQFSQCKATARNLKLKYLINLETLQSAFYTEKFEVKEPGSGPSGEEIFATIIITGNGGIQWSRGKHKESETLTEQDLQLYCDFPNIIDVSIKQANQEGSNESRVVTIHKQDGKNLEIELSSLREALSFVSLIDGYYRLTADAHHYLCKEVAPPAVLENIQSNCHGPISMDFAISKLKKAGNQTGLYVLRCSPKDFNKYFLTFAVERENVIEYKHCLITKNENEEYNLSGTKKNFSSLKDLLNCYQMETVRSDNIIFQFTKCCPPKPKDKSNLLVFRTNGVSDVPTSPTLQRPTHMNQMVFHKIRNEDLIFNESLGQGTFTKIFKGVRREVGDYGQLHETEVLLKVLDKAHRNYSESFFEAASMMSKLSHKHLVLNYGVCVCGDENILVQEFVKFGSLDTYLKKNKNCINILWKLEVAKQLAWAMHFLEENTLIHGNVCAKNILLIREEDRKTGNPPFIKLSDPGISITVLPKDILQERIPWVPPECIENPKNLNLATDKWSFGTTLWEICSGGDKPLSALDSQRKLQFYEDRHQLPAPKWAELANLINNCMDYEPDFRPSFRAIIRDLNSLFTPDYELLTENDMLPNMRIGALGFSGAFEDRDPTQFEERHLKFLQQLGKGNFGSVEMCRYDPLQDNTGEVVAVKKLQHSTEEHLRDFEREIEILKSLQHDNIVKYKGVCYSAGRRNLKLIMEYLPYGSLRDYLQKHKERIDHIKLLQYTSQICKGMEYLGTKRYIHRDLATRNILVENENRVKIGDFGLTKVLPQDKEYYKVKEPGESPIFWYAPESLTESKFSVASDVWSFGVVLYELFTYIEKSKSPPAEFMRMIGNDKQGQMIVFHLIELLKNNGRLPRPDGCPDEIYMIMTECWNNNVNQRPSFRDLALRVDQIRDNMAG
JAK1, sequence (P23458 whole entry, species assumed): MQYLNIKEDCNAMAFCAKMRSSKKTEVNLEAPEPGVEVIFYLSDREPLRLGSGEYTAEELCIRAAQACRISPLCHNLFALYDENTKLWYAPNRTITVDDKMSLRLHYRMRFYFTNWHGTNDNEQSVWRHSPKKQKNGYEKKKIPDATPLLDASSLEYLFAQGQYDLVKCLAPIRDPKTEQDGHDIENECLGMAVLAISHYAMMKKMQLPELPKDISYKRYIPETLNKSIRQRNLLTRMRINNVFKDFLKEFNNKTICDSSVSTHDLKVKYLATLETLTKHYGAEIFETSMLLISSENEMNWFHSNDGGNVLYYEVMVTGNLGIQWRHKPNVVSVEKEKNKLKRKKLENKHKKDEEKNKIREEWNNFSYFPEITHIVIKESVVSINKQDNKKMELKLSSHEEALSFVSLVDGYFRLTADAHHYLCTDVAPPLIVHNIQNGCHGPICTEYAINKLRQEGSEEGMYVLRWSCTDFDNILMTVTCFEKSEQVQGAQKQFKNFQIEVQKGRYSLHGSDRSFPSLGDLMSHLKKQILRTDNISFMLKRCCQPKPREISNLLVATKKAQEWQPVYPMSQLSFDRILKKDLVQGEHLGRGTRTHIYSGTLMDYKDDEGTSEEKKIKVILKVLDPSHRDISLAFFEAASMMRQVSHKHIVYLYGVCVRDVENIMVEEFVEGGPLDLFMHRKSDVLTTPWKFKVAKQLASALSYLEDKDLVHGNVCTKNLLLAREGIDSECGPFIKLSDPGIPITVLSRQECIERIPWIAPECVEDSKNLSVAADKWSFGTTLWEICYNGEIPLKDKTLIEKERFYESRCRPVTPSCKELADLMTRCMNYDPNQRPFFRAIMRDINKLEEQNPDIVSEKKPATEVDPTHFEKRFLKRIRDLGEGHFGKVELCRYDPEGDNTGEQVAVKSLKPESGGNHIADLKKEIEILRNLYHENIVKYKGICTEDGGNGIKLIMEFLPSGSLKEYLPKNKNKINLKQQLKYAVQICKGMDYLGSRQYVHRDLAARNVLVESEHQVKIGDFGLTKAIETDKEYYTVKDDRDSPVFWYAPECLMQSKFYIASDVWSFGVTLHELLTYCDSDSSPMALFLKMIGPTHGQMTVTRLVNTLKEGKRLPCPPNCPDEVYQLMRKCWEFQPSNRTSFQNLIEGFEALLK
PDE4B, sequence (Q07343 whole entry, species assumed): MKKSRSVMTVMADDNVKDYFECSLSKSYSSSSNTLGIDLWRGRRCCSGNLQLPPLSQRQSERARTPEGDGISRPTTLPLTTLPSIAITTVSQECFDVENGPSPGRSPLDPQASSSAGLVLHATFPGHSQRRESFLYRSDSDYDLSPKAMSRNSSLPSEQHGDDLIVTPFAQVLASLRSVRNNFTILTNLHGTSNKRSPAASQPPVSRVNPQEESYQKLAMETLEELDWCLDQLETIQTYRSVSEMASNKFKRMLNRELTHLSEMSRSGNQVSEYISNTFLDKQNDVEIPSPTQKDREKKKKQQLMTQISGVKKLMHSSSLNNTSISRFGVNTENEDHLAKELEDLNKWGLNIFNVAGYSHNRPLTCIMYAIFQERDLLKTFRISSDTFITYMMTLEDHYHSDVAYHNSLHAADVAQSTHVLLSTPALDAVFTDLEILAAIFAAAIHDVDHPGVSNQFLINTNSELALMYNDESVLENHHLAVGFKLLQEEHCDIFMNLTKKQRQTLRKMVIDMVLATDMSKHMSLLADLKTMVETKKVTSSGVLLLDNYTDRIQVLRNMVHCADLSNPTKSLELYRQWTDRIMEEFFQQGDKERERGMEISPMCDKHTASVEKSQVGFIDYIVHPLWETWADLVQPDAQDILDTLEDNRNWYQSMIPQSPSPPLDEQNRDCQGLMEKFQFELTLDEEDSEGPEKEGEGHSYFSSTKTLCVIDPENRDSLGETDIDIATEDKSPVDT

The IC50 is the concentration that gives 50% inhibition. On to `Cc1cnc(Nc2cc(Cl)c3c(c2)COB3O)nc1NC1CCCC1` [Example C007], for which the “Dog LM QH” value in data set [1] (Table 3b, comparator compounds) is 52.1%. Further, the concentration for half-maximal inhibition (IC50) is 3740 nM in data set [2]; 113 nM in data set [3] (Table 3b, comparator compounds); 31.8 nM in data set [4] (Table 3b, comparator compounds); 300 nM in data set [5] (setting [7]); 0.7 nM in data set [6] (Table 3b, comparator compounds).

Consider `Cc1cnc(Nc2cc(F)c3c(c2)C=CB(O)O3)nc1N[C@@H]1COCC[C@H]1C#N` (single isomer, unassigned) [Example 036a, (trans)-3-((2-((8-fluoro-2-hydroxy-2H-benzo[e][1,2]oxaborinin-6-yl)amino)-5-methylpyrimidin-4-yl)amino)tetrahydro-2H-pyran-4-carbonitrile], for which, in data set [1] (setting [8]), the “Dog LM QH” value was 33.1%. Also, the IC50 in data set [4] (Table 3a) was 4.8 nM; in data set [5] (setting [9]), 158 nM; in data set [6] (Table 3a), 0.3 nM.

In the case of `OB1OCc2cc(Nc3ncc(F)c(NC4CCCCC4)n3)ccc21` [Example C017], the “Dog LM QH” value in data set [1] (Table 3b, comparator compounds) is 53.5%. For the same compound, the 50% inhibitory concentration (IC50) amounted to 10000 nM in data set [2]; 1850 nM in data set [4] (Table 3b, comparator compounds); 1640 nM in data set [5] (setting [7]); 11.2 nM in data set [6] (Table 3b, comparator compounds).

As for `N#C[C@@H]1CCC[C@H]1Nc1nc(Nc2ccc3c(c2)COB3O)ncc1Cl` (relative stereo) [Example 005, (trans)-2-[[5-chloro-2-[(1-hydroxy-3H-2,1-benzoxaborol-5-yl)amino]pyrimidin-4-yl]amino]cyclopentane-1-carbonitrile], in data set [1] (setting [8]), the “Dog LM QH” value was under 19.9%. Moreover, the IC50 was found to be 44.5 nM in data set [3] (Table 3a), 9 nM in data set [4] (Table 3a) and 0.5 nM in data set [6] (Table 3a).

In the case of `Cc1cnc(Nc2cc3c(c(C(F)(F)F)c2)B(O)OC3)nc1N[C@@H]1CCC[C@H]1C#N` (relative stereo) [Example 006, (trans)2-[[2-[[1-hydroxy-7-(trifluoromethyl)-3H-2,1-benzoxaborol-5-yl]amino]-5-methyl-pyrimidin-4-yl]amino]cyclopentanecarbonitrile], the “Dog LM QH” value in data set [1] (setting [8]) was under 19.9%. Further, the IC50 in data set [4] (Table 3a) stood at 36.6 nM; in data set [5] (setting [9]) it was 202 nM; in data set [6] (Table 3a), 1 nM.

Turning to `Cc1cnc(Nc2cc3c(c(C(F)(F)F)c2)OB(O)C=C3)nc1N[C@@H]1COCC[C@H]1C#N` (relative stereo) [Example 037, (trans)-3-[[2-[[2-hydroxy-8-(trifluoromethyl)-1,2-benzoxaborinin-6-yl]amino]-5-methyl-pyrimidin-4-yl]amino]tetrahydropyran-4-carbonitrile], the “Dog LM QH” value in data set [1] (setting [8]) is 19.9%. Also, the figures for the IC50 in data set [4] (Table 3a), in data set [5] (setting [9]) and in data set [6] (Table 3a) were 18.5 nM, 919 nM and 3.1 nM, respectively.

For the compound `CCC(CC)Nc1nc(Nc2cc(Cl)c3c(c2)COB3O)ncc1C` [Example C002], in data set [1] (Table 3b, comparator compounds), the “Dog LM QH” value is under 19.9%. Further, the IC50 turned out to be 10000 nM in data set [2]; 95.7 nM in data set [4] (Table 3b, comparator compounds); 155 nM in data set [5] (setting [7]); 1.1 nM in data set [6] (Table 3b, comparator compounds).

On to `Cc1cnc(Nc2cc(Cl)c3c(c2)C(C(C)C)=CB(O)O3)nc1N[C@H]1COCC[C@@H]1C#N` (single isomer, unassigned) [Example 040b, (trans)-3-((2-((8-chloro-2-hydroxy-4-isopropyl-2H-benzo[e][1,2]oxaborinin-6-yl)amino)-5-methylpyrimidin-4-yl)amino)tetrahydro-2H-pyran-4-carbonitrile], for which the “Dog LM QH” value in data set [1] (setting [8]) is reported as 47.4%. The IC50 in data set [4] (Table 3a) stood at 16.7 nM; in data set [5] (setting [9]) it was 1410 nM; in data set [6] (Table 3a), 1.1 nM.

As for `Cc1cnc(Nc2ccc3c(c2)COB3O)nc1N[C@@H]1CCC[C@H]1C#N` (relative stereo) [Example 001, (trans)-2-((2-((1-hydroxy-1,3-dihydrobenzo[c][1,2]oxaborol-5-yl)amino)-5-methylpyrimidin-4-yl)amino)cyclopentane-1-carbonitrile], the “Dog LM QH” value in data set [1] (setting [8]) is recorded as 39.7%. Also, the IC50 stood at 362 nM in data set [3] (Table 3a), 24.7 nM in data set [4] (Table 3a), 173 nM in data set [5] (setting [9]) and 1.1 nM in data set [6] (Table 3a).

For the compound `N#C[C@@H]1CCOC[C@H]1Nc1nc(Nc2cc(Cl)c3c(c2)COB3O)ncc1C(F)(F)F` (relative stereo) [Example 049, (trans)-3-((2-((7-chloro-1-hydroxy-1,3-dihydrobenzo[c][1,2]oxaborol-5-yl)amino)-5-(trifluoromethyl)pyrimidin-4-yl)amino)tetrahydro-2H-pyran-4-carbonitrile], in data set [1] (setting [8]), the “Dog LM QH” value is 39.7%. Besides, the IC50 in data set [3] (Table 3a) came to 362 nM; in data set [4] (Table 3a), 13.3 nM; in data set [5] (setting [9]), 173 nM; in data set [6] (Table 3a), 8.2 nM.

On to `OB1OCc2cc(Nc3ncc(Cl)c(NC4CCCCC4)n3)ccc21` [Example C018], for which, in data set [1] (Table 3b, comparator compounds), the “Dog LM QH” value was 56.0%. Further, the IC50 in data set [3] (Table 3b, comparator compounds) was 108 nM; in data set [4] (Table 3b, comparator compounds), 118 nM.

In the case of `OB1OCc2cc(Nc3ncc(C(F)(F)F)c(NC4CCCCC4)n3)ccc21` [Example C020], the “Dog LM QH” value in data set [1] (Table 3b, comparator compounds) was under 19.9%. Further, the IC50 in data set [3] (Table 3b, comparator compounds) was 37.6 nM; in data set [4] (Table 3b, comparator compounds), 397 nM; in data set [6] (Table 3b, comparator compounds), 44.1 nM.

Consider `CCC(CC)Nc1nc(Nc2ccc3c(c2)COB3O)ncc1Cl` [Example C005], for which the IC50 in data set [2] amounted to 2250 nM; in data set [3] (Table 3b, comparator compounds) it was 379 nM; in data set [4] (Table 3b, comparator compounds), 33.3 nM; in data set [5] (setting [7]) it was 6120 nM; in data set [6] (Table 3b, comparator compounds), 1.1 nM.

Turning to `Cc1cnc(Nc2cc(Cl)c3c(c2)COB3O)nc1N[C@@H]1CCC[C@H]1C#N` (single isomer, unassigned) [Example 003b, (trans)-2-((2-((7-chloro-1-hydroxy-1,3-dihydrobenzo[c][1,2]oxaborol-5-yl)amino)-5-methylpyrimidin-4-yl)amino)cyclopentane-1-carbonitrile], the “Dog LM QH” value in data set [1] (setting [8]) was under 19.9%. The IC50 in data set [4] (Table 3a) turned out to be 83.1 nM; in data set [5] (read-out: IC50 IL-4, Table 3a) it was 74.8 nM; in data set [6] (Table 3a) it was 5 nM.

For `OB1OCc2cc(Nc3nccc(NC4CCCCC4)n3)ccc21` [Example C010], the IC50 is 956 nM in data set [3] (Table 3b, comparator compounds); 364 nM in data set [4] (Table 3b, comparator compounds); 48 nM in data set [6] (Table 3b, comparator compounds). The “Inhibition PDE4B @ 1 μM” value in data set [3] (Table 3b, comparator compounds) was found to be 53%.

`Cc1cnc(Nc2ccc3c(c2)C=CB(O)O3)nc1N[C@@H]1COCC[C@H]1C#N` (relative stereo) [Example 035, (trans)-3-[[2-[(2-hydroxy-1,2-benzoxaborinin-6-yl)amino]-5-methyl-pyrimidin-4-yl]amino]tetrahydropyran-4-carbonitrile]: the “Dog LM QH” value in data set [1] (setting [8]) is 43.7%. For the same compound, the IC50 came out at 320 nM in data set [3] (Table 3a), 8.8 nM in data set [4] (Table 3a) and 0.7 nM in data set [6] (Table 3a).

As for `Cc1cnc(Nc2cc(Cl)c3c(c2)COB3O)nc1NC1CCCCC1` [Example C012], the “Dog LM QH” value in data set [1] (Table 3b, comparator compounds) is reported as under 19.9%. For the same compound, the IC50 in data set [2] stood at 1780 nM; in data set [4] (Table 3b, comparator compounds) it was 6.5 nM; in data set [5] (setting [7]), 224 nM; in data set [6] (Table 3b, comparator compounds), 0.1 nM.

Turning to `OB1OCc2cc(Nc3ncc(C(F)(F)F)c(NC4CCCC4)n3)ccc21` [Example C019], the “Dog LM QH” value in data set [1] (Table 3b, comparator compounds) is 73.8%. Besides, the IC50 in data set [3] (Table 3b, comparator compounds) was found to be 275 nM; in data set [4] (Table 3b, comparator compounds) it was 171 nM; in data set [6] (Table 3b, comparator compounds), 29.5 nM. Also, the “Inhibition PDE4B @ 1 μM” value in data set [3] (Table 3b, comparator compounds) was 90%.

On to `OB1OCc2cc(Nc3ncc(Cl)c(NC4CCCC4)n3)cc(F)c21` [Example C015], for which the “Dog LM QH” value in data set [1] (Table 3b, comparator compounds) was 67.2%. Moreover, the IC50 worked out at 85.7 nM in data set [3] (Table 3b, comparator compounds); 26.5 nM in data set [4] (Table 3b, comparator compounds); 0.8 nM in data set [6] (Table 3b, comparator compounds).

`Cc1cnc(Nc2ccc3c(c2)C(C(C)C)=CB(O)O3)nc1N[C@H]1COCC[C@@H]1C#N` (single isomer, unassigned) [Example 039a, (trans)-3-((2-((2-hydroxy-4-isopropyl-2H-benzo[e][1,2]oxaborinin-6-yl)amino)-5-methylpyrimidin-4-yl)amino)tetrahydro-2H-pyran-4-carbonitrile]: the “Dog LM QH” value in data set [1] (setting [8]) is 78.4%. The IC50 turned out to be 18.9 nM in data set [4] (Table 3a), 265 nM in data set [5] (setting [9]) and 1.1 nM in data set [6] (Table 3a).

(Values after patent publication US20240132525A1, “BORON […], CO[…], METHODS AND USES THEREOF” (priority 2022, published 2024).)
